From patent US20260035387A1 (BIOGEN MA INC., priority 2022, published 2026)
Like-named read-outs stand apart in the source and are kept apart here.

Tests used:
mHTT protein [1] = conditions: HD patient cells; cited from earlier work
mHTT protein [2] = conditions: HD mouse model; cited from earlier work
mHTT protein [3] = conditions: blood samples from SMA Type I patients dosed orally; cited from earlier work
[4] = system: mutant Huntington (HTT) protein; experiment: HTT Mutant HTRF iPSC assay (mHTT protein lowering); assay type: cell-based; conditions: human iPSC derived from a HTT patient with a poly-Q49 mutation

SMILES	IC50 [4] [nM]	further results
CC1(C)CC(Oc2ccc(-c3ccc(-c4cn[nH]c4)cc3O)nn2)CC(C)(C)N1 [branaplam]	–	mHTT protein levels (mHTT protein [1]): lowers mHTT protein levels; mHTT protein levels (mHTT protein [2]): lowers mHTT protein levels; mHTT protein levels (mHTT protein [3]): lowers mHTT protein levels
Cc1cn2cc(NC(=O)c3cc4ccc(N5CCC6CCN(C)CC65)nc4s3)ccc2n1 (stereo not shown) [Compound 16, N-(2-methylimidazo[1,2-a]pyridin-6-yl)-6-(6-methyloctahydro-1H-pyrrolo[2,3-c]pyridin-1-yl)thieno[2,3-b]pyridine-2-carboxamide]	1000 to 9000	–
Cc1cn2cc(NC(=O)c3cc4ccc(Nc5ccc(CN6CCCC6)cc5)nc4s3)ccc2n1 [Compound 39, N-(2-methylimidazo[1,2-a]pyridin-6-yl)-6-((4-(pyrrolidin-1-ylmethyl)phenyl)amino)thieno [2,3-b]pyridine-2-carboxamide]	1000 to 9000	–
CCNC1CCN(c2ccc3cc(C(=O)Nc4cc5cc(C)nn5cc4OC)sc3n2)C1 (single isomer, unassigned) [Compound 212]	< 100	–
COc1cn2nc(C)cc2cc1NC(=O)c1cc2nc(N3C[C@@H]4CN(C)C[C@@H]43)ccc2o1 [Compound 171, N-(6-methoxy-2-methylpyrazolo[1,5-a]pyridin-5-yl)-5-((1S,5R)-3-methyl-3,6-diazabicyclo[3.2.0]heptan-6-yl)furo[3,2-b]pyridine-2-carboxamide]	100 to 1000	–
Cc1cn2cc(NC(=O)c3cc4ccc(N5CCC(N(C)C)C5)nc4s3)ccc2n1 (stereo not shown) [Compound 1, 6-[3-(dimethylamino)pyrrolidin-1-yl]-N-(2-methylimidazo[1,2-a]pyridin-6-yl)thieno[2,3-b]pyridine-2-carboxamide]	1000 to 9000	–
CN1CCC(c2ccc3nc(C(=O)Nc4cc(F)c5nn(C)cc5c4)sc3n2)CC1 [Compound 246, N-(7-fluoro-2-methyl-2H-indazol-5-yl)-5-(1-methylpiperidin-4-yl)thiazolo[5,4-b]pyridine-2-carboxamide]	100 to 1000	–
Cc1cn2cc(NC(=O)c3nc4ccc(N5C[C@H]6CCN[C@H]6C5)nc4s3)cc(F)c2n1 [Compound 108, N-(8-fluoro-2-methylimidazo[1,2-a]pyridin-6-yl)-5-((3aR,6aR)-hexahydropyrrolo[3,4-b]pyrrol-5(1H)-yl)thiazolo[5,4-b]pyridine-2-carboxamide]	< 100	–
Cc1cn2cc(NC(=O)c3nc4ccc(C5=CCCN(C)C5)nc4s3)cc(F)c2n1 [Compound 133, N-(8-fluoro-2-methylimidazo[1,2-a]pyridin-6-yl)-5-(1-methyl-1,2,5,6-tetrahydropyridin-3-yl)thiazolo[5,4-b]pyridine-2-carboxamide]	< 100	–
CN[C@@H]1CCN(c2ccc3cc(C(=O)Nc4cc(OC)c5nc(C)cn5c4)sc3n2)C1 [Compound 220, (R)-N-(8-methoxy-2-methylimidazo[1,2-a]pyridin-6-yl)-6-(3-(methylamino)pyrrolidin-1-yl)thieno[2,3-b]pyridine-2-carboxamide]	< 100	–
CN(C)C1CCN(c2ccc3cc(C(=O)Nc4ccc5cncn5c4)sc3n2)C1 (stereo not shown) [Compound 62, 6-(3-(dimethylamino)pyrrolidin-1-yl)-N-(imidazo[1,5-a]pyridin-6-yl)thieno[2,3-b]pyridine-2-carboxamide]	1000 to 9000	–
Cc1cn2cc(NC(=O)c3nc4ccc(NC5CC(C)(C)NC(C)(C)C5)nc4s3)cc(F)c2n1 [Compound 103, N-(8-fluoro-2-methylimidazo[1,2-a]pyridin-6-yl)-5-((2,2,6,6-tetramethylpiperidin-4-yl)amino)thiazolo[5,4-b]pyridine-2-carboxamide]	< 100	–
Cc1cn2cc(NC(=O)c3nc4ccc(N(C)C5CC(C)(C)NC(C)(C)C5)nc4s3)cc(F)c2n1 [Compound 113, N-(8-fluoro-2-methylimidazo[1,2-a]pyridin-6-yl)-5-(methyl(2,2,6,6-tetramethylpiperidin-4-yl)amino)thiazolo[5,4-b]pyridine-2-carboxamide]	< 100	–
COc1cc2nn(C)cc2cc1NC(=O)c1cc2ccc(C3CCN(C)C3)nc2s1 (single isomer, unassigned) [Compound 177]	< 100	–
Cc1cn2cc(C(=O)Nc3cc4ccc(N5CC[C@H](N(C)C)C5)nc4s3)cc(F)c2n1 [Compound 153, N-[6-[(3S)-3-(dimethylamino)pyrrolidin-1-yl]thieno[2,3-b]pyridin-2-yl]-8-fluoro-2-methyl-imidazo[1,2-a]pyridine-6-carboxamide]	< 100	–
Cc1cn2cc(NC(=O)c3cc4ccc(N5CCC(C)(N(C)C)C5)nc4s3)nc(C)c2n1 (stereo not shown) [Compound 227, 6-(3-(dimethylamino)-3-methylpyrrolidin-1-yl)-N-(2,8-dimethylimidazo[1,2-a]pyrazin-6-yl)thieno[2,3-b]pyridine-2-carboxamide]	< 100	–
Cc1cn2cc(NC(=O)c3cc4ccc(NC5CCN6CCCC6C5)nc4s3)ccc2n1 (stereo not shown) [Compound 14, N-(2-methylimidazo[1,2-a]pyridin-6-yl)-6-((octahydroindolizin-7-yl)amino)thieno[2,3-b]pyridine-2-carboxamide]	100 to 1000	–
Cc1cn2cc(NC(=O)c3cc4ncc(C5CCC(N)CC5)nc4s3)cc(F)c2n1 (racemic) [Compound 141, 3-(4-aminocyclohexyl)-N-(8-fluoro-2-methylimidazo[1,2-a]pyridin-6-yl)thieno[2,3-b]pyrazine-6-carboxamide]	1000 to 9000	–
COc1cc2nn(C)cc2cc1NC(=O)c1nc2ccc(N3CCC4(CN(C)C4)C3)nc2s1 [Compound 88, N-(6-methoxy-2-methyl-2H-indazol-5-yl)-5-(2-methyl-2,6-diazaspiro[3.4]octan-6-yl)thiazolo[5,4-b]pyridine-2-carboxamide]	< 100	–
Cc1cn2cc(NC(=O)c3cc4ccc(OC5C[C@@H](C)N[C@@H](C)C5)nc4s3)cc(F)c2n1 (mixture of isomers) [Compound 156]	< 100	–
COc1nc(NC(=O)c2nc3ccc(N4CCC5(CCCN5C)C4)nc3s2)cn2cc(C)nc12 (stereo not shown) [Compound 109, N-(8-methoxy-2-methylimidazo[1,2-a]pyrazin-6-yl)-5-(1-methyl-1,7-diazaspiro[4.4]nonan-7-yl)thiazolo[5,4-b]pyridine-2-carboxamide]	< 100	–
COc1c(NC(=O)c2nc3ccc(N4CCC5(CN(C)C5)C4)nc3s2)cn2cc(C)nc2c1F [Compound 114, N-(8-fluoro-7-methoxy-2-methylimidazo[1,2-a]pyridin-6-yl)-5-(2-methyl-2,6-diazaspiro[3.4]octan-6-yl)thiazolo[5,4-b]pyridine-2-carboxamide]	< 100	–
Cc1cn2cc(NC(=O)c3cc4ncc(C5CCNCC5)nc4s3)cc(F)c2n1 [Compound 148, N-(8-fluoro-2-methyl-imidazo[1,2-a]pyridin-6-yl)-3-(4-piperidyl)thieno[2,3-b]pyrazine-6-carboxamide]	< 100	–
Cc1cn2cc(NC(=O)c3cc4ccc(C5CCC6(CNC6)C5)nc4s3)cc(F)c2n1 (stereo not shown) [Compound 182, N-(8-fluoro-2-methylimidazo[1,2-a]pyridin-6-yl)-6-(2-azaspiro[3.4]octan-6-yl)thieno[2,3-b]pyridine-2-carboxamide]	100 to 1000	–
COc1cc(NC(=O)c2nc3ccc(N4CC5(CCN(C)C5)C4)nc3s2)cn2cc(C)nc12 [Compound 267, N-(8-methoxy-2-methylimidazo[1,2-a]pyridin-6-yl)-5-(6-methyl-2,6-diazaspiro[3.4]octan-2-yl)thiazolo[5,4-b]pyridine-2-carboxamide]	< 100	–
COc1cc(NC(=O)c2nc3ccc(N4CCC5(CCCN5C)C4)nc3s2)cn2cc(C)nc12 (stereo not shown) [Compound 95, N-(8-methoxy-2-methylimidazo[1,2-a]pyridin-6-yl)-5-(1-methyl-1,7-diazaspiro[4.4]nonan-7-yl)thiazolo[5,4-b]pyridine-2-carboxamide]	< 100	–
